What was measured:
[1] = system: murine leukemia L1210; assay: Antitumor activity test on murine leukemia L1210 in vivo; parameters: species or system male BDF1 mice; details: days 1, 5, 9
Protocol: 2. Antitumor activity test on murine leukemia L1210 in vivo
Murine leukemia L1210 cells were maintained in the peritoneal cavities of 6-week-old male DBA/2 mice by weekly transfer in accordance with the procedure described in cancer chemotherapy Reports, Part 3, 3(2), 7 (1972). Specifically, 1×10^6 leukemia cells were inoculated into the abdominal cavities of 6-week-old male BDF1 mice weighing 21±3 g on day 0. Each treatment group consisted of seven mice. The test compounds were dissolved or suspended in 0.5% carboxymethyl cellulose(CMC)solution (in water) and were administered intraperitoneally on days 1, 5, and 9 relative to the tumor inoculation.
Thirty mice of 6-week-old male BDF1 weighing 21±3 g were used as the control group, which were injected with 0.5% CMC solution only in the same manner as above.
Anti-tumor activities of the compounds were evaluated in terms of the T/C % values calculated from the mean survival time(T) of the compound-treated group over that(C) of the control group. [formula]

[2] = system: murine leukemia L1210 cells; assay: Growth inhibition test on cultured murine leukemia L1210 cells; assay type: cell-based; details: 48 hours, 37° C., Trypan blue viability
Protocol: 1. Growth inhibition test on cultured murine leukemia L1210 cells
Murine leukemia L1210 cells(1×10^5) were treated with various concentrations of the compounds prepared in the above examples in RPMI 1640 medium supplemented with 10% fetal calf serum, and cultured in a 5% CO2 humidified incubator at 37° C. for 48 hours. Their viability, estimated by staining with 0.17% Trypan blue, was compared with that of control cells cultured in the identical medium without the compounds.

IC50 (concentration required for 50% inhibition of growth) [2]	SMILES	T/C (%) ([1]; 12.5 mg/kg i.p.)	T/C (%) ([1]; 25 mg/kg i.p.)	T/C (%) ([1]; 50 mg/kg i.p.)	T/C (%) ([1]; 100 mg/kg i.p.)
0.50 µg/mL	O=C1CC(=O)[O][Pt-2]2([NH2+]CC3OCOC3C[NH2+]2)[O]1 [Example 33, cis-malonato[(4R,5R)-4,5-bis(aminomethyl)-1,3-dioxolane]platinum(II)]	146%	133%	276%	
0.60 µg/mL	CC1OC2C[NH2+][Pt-2]3([NH2+]CC2O1)[O]C(=O)CC(=O)[O]3 [Example 34, cis-malonato[(4R,5R)-4,5-bis(aminomethyl)-2-methyl-1,3-dioxolane]platinum(II)]	140%	156%	241%	
0.44 µg/mL	CCC1OC2C[NH2+][Pt-2]3([NH2+]CC2O1)[O]C(=O)CC(=O)[O]3 [Example 35, cis-malonato[(4R,5R)-4,5-bis(aminomethyl)-2-ethyl-1,3-dioxolane]platinum(II)]	144%	204%	245%	
0.76 µg/mL	CC1(C)OC2C[NH2+][Pt-2]3([NH2+]CC2O1)[O]C(=O)CC(=O)[O]3 [Example 36, cis-malonato[(4R,5R)-4,5-bis(aminomethyl)-2,2-dimethyl-1,3-dioxolane]platinum(II)]	133%	179%	190%	
0.44 µg/mL	CC(C)C1OC2C[NH2+][Pt-2]3([NH2+]CC2O1)[O]C(=O)C(C)(C)C(=O)[O]3 [Example 41, cis-dimethylmalonato[(4R,5R)-4,5-bis(aminomethyl)-2-isopropyl-1,3-dioxolane]platinum(II)]		123%	174%	204%
0.54 µg/mL	CC1(C)C(=O)[O][Pt-2]2([NH2+]CC3OC4(CCCC4)OC3C[NH2+]2)[O]C1=O [Example 42, cis-dimethylmalonato[(4R,5R)-4,5-bis(aminomethyl)-1,3-dioxolane-2-spiro-1'-cyclopentane]platinum(II)]		172%	160%	150%

SMILES	IC50 (concentration required for 50% inhibition of growth) [2]	T/C (%) ([1]; 12.5 mg/kg i.p.)	T/C (%) ([1]; 25 mg/kg i.p.)	T/C (%) ([1]; 50 mg/kg i.p.)	T/C (%) ([1]; 100 mg/kg i.p.)
O=C1CC(=O)[O][Pt-2]2([NH2+]CC3OC4(CCCC4)OC3C[NH2+]2)[O]1 [Example 39, cis-malonato[(4R,5R)-4,5-bis(aminomethyl)-1,3-dioxolane-2-spiro-1'-cyclopentane]platinum(II)]	0.31 µg/mL	217%	169%	203%	
CCC1OC2C[NH2+][Pt-2]3([NH2+]CC2O1)[O]C(=O)C(C)(C)C(=O)[O]3 [Example 40, cis-dimethylmalonato[(4R,5R)-4,5-bis(aminomethyl)-2-ethyl-1,3-dioxolane]platinum(II)]	0.52 µg/mL		213%	165%	248%
